# Data: patent US20210254056A1, “IDENTIFICATION AND TARGETED MODULATION OF GENE SIGNALING NETWORKS” (CAMP4 THERAPEUTICS CORPORATION, priority 2017, published 2021)
# System: hepatocytes
# Assay: RNA-seq of hepatocytes treated with Phase III failure compounds
# Experimental: RNA-seq was performed to determine the effects of the compounds on hepatocytes.
# Significance was determined by the criteria of FPKM≥0.5, a log 2(fold-change)≥1, and a […].
smiles,measurement,setting,value
"CCC(CC)[C@H](NC(C)=O)[C@@H]1[C@H](O)[C@@H](C(=O)O)C[C@H]1NC(=N)N.O.O.O [peramivir (trihydrate), peramivir]","RNA-seq results, gene HYLS1",HYLS1 expression in hepatocytes,−0.16
same,"RNA-seq results, gene ID1",ID1 expression in hepatocytes,−0.69
same,"RNA-seq results, gene IDH1",IDH1 expression in hepatocytes,0.19
same,"RNA-seq results, gene IDH2",IDH2 expression in hepatocytes,0
same,"RNA-seq results, gene IDUA",IDUA expression in hepatocytes,0.34
same,"RNA-seq results, gene IFIH1",IFIH1 expression in hepatocytes,−0.06
same,"RNA-seq results, gene IFNAR2",IFNAR2 expression in hepatocytes,0.01
same,"RNA-seq results, gene IFT27",IFT27 expression in hepatocytes,0.27
same,"RNA-seq results, gene IFT80",IFT80 expression in hepatocytes,−0.41
same,"RNA-seq results, gene IFT122",IFT122 expression in hepatocytes,−0.16
same,"RNA-seq results, gene IFT140",IFT140 expression in hepatocytes,0.27
same,"RNA-seq results, gene IFT172",IFT172 expression in hepatocytes,0.16
same,"RNA-seq results, gene IGFALS",IGFALS expression in hepatocytes,0.11
same,"RNA-seq results, gene IKBKG",IKBKG expression in hepatocytes,0.3
same,"RNA-seq results, gene IL1RN",IL1RN expression in hepatocytes,0.21
same,"RNA-seq results, gene IL2RG",IL2RG expression in hepatocytes,0.6
same,"RNA-seq results, gene INSR",INSR expression in hepatocytes,0.28
same,"RNA-seq results, gene INVS",INVS expression in hepatocytes,−0.03
same,"RNA-seq results, gene ISYNA1",ISYNA1 expression in hepatocytes,−0.17
same,"RNA-seq results, gene ITGB3",ITGB3 expression in hepatocytes,0.27
same,"RNA-seq results, gene IYD",IYD expression in hepatocytes,−0.02
same,"RNA-seq results, gene JAG1",JAG1 expression in hepatocytes,−0.1
same,"RNA-seq results, gene JAK2",JAK2 expression in hepatocytes,−0.14
same,"RNA-seq results, gene KCTD7",KCTD7 expression in hepatocytes,0.11
same,"RNA-seq results, gene KCTD11",KCTD11 expression in hepatocytes,−0.21
same,"RNA-seq results, gene KHK",KHK expression in hepatocytes,0.03
same,"RNA-seq results, gene KIAA0586",KIAA0586 expression in hepatocytes,−0.2
same,"RNA-seq results, gene KMT2D",KMT2D expression in hepatocytes,−0.05
same,"RNA-seq results, gene KPTN",KPTN expression in hepatocytes,0.22
same,"RNA-seq results, gene KRIT1",KRIT1 expression in hepatocytes,−0.1
same,"RNA-seq results, gene KRT18",KRT18 expression in hepatocytes,−0.47
same,"RNA-seq results, gene KYNU",KYNU expression in hepatocytes,0.16
same,"RNA-seq results, gene LAMB2",LAMB2 expression in hepatocytes,0.01
same,"RNA-seq results, gene LCAT",LCAT expression in hepatocytes,0.11
same,"RNA-seq results, gene LDHB",LDHB expression in hepatocytes,−0.34
same,"RNA-seq results, gene LDLR",LDLR expression in hepatocytes,0.24
same,"RNA-seq results, gene LDLRAP1",LDLRAP1 expression in hepatocytes,0.2
same,"RNA-seq results, gene LIPC",LIPC expression in hepatocytes,−0.29
same,"RNA-seq results, gene LIPT1",LIPT1 expression in hepatocytes,−0.12
same,"RNA-seq results, gene LMNB2",LMNB2 expression in hepatocytes,0.14
same,"RNA-seq results, gene LPA",LPA expression in hepatocytes,0.07
same,"RNA-seq results, gene LPIN1",LPIN1 expression in hepatocytes,0.22
same,"RNA-seq results, gene LPIN2",LPIN2 expression in hepatocytes,0.1
same,"RNA-seq results, gene LRBA",LRBA expression in hepatocytes,−0.32
same,"RNA-seq results, gene LRP5",LRP5 expression in hepatocytes,0.15
same,"RNA-seq results, gene LYRM4",LYRM4 expression in hepatocytes,0.19
same,"RNA-seq results, gene LYST",LYST expression in hepatocytes,−0.14
same,"RNA-seq results, gene MAN1A1",MAN1A1 expression in hepatocytes,−0.26
same,"RNA-seq results, gene MAN2B1",MAN2B1 expression in hepatocytes,0.13
same,"RNA-seq results, gene MAOB",MAOB expression in hepatocytes,−0.16
same,"RNA-seq results, gene MAT1A",MAT1A expression in hepatocytes,0.3
same,"RNA-seq results, gene MBL2",MBL2 expression in hepatocytes,−0.47
same,"RNA-seq results, gene MCCC1",MCCC1 expression in hepatocytes,0.01
same,"RNA-seq results, gene MCCC2",MCCC2 expression in hepatocytes,−0.2
same,"RNA-seq results, gene MCM6",MCM6 expression in hepatocytes,−0.05
same,"RNA-seq results, gene MEN1",MEN1 expression in hepatocytes,0.15
same,"RNA-seq results, gene MET",MET expression in hepatocytes,−0.2
same,"RNA-seq results, gene MGAT2",MGAT2 expression in hepatocytes,0.09
same,"RNA-seq results, gene MKS1",MKS1 expression in hepatocytes,0.17
same,"RNA-seq results, gene MLH1",MLH1 expression in hepatocytes,−0.06
same,"RNA-seq results, gene MMAA",MMAA expression in hepatocytes,−0.35
same,"RNA-seq results, gene MMAB",MMAB expression in hepatocytes,0.27
same,"RNA-seq results, gene MMADHC",MMADHC expression in hepatocytes,−0.24
same,"RNA-seq results, gene MOCS1",MOCS1 expression in hepatocytes,0.13
same,"RNA-seq results, gene MOGAT2",MOGAT2 expression in hepatocytes,−0.04
same,"RNA-seq results, gene MOGS",MOGS expression in hepatocytes,0.24
same,"RNA-seq results, gene MPZ",MPZ expression in hepatocytes,0.41
same,"RNA-seq results, gene MRPL3",MRPL3 expression in hepatocytes,−0.06
same,"RNA-seq results, gene MTHFR",MTHFR expression in hepatocytes,0.35
same,"RNA-seq results, gene MTM1",MTM1 expression in hepatocytes,−0.13
same,"RNA-seq results, gene MTO1",MTO1 expression in hepatocytes,−0.03
same,"RNA-seq results, gene MTR",MTR expression in hepatocytes,−0.08
same,"RNA-seq results, gene MTRR",MTRR expression in hepatocytes,−0.2
same,"RNA-seq results, gene MTTP",MTTP expression in hepatocytes,−0.29
same,"RNA-seq results, gene MVK",MVK expression in hepatocytes,0.29
same,"RNA-seq results, gene MYH9",MYH9 expression in hepatocytes,0.02
same,"RNA-seq results, gene MYO5B",MYO5B expression in hepatocytes,0.2
same,"RNA-seq results, gene NAGS",NAGS expression in hepatocytes,0.46
same,"RNA-seq results, gene NARS2",NARS2 expression in hepatocytes,−0.14
same,"RNA-seq results, gene NAT2",NAT2 expression in hepatocytes,−0.1
same,"RNA-seq results, gene NBAS",NBAS expression in hepatocytes,−0.22
same,"RNA-seq results, gene NCF2",NCF2 expression in hepatocytes,0.47
same,"RNA-seq results, gene NEK1",NEK1 expression in hepatocytes,0.1
same,"RNA-seq results, gene NEK8",NEK8 expression in hepatocytes,0.29
same,"RNA-seq results, gene NEU1",NEU1 expression in hepatocytes,0.51
same,"RNA-seq results, gene NFKB2",NFKB2 expression in hepatocytes,0.12
same,"RNA-seq results, gene NFKBIA",NFKBIA expression in hepatocytes,−0.06
same,"RNA-seq results, gene NFU1",NFU1 expression in hepatocytes,−0.04
same,"RNA-seq results, gene NGLY1",NGLY1 expression in hepatocytes,−0.07
same,"RNA-seq results, gene NHP2",NHP2 expression in hepatocytes,0.21
same,"RNA-seq results, gene NME1",NME1 expression in hepatocytes,0.06
same,"RNA-seq results, gene NOD2",NOD2 expression in hepatocytes,0.33
same,"RNA-seq results, gene NOP10",NOP10 expression in hepatocytes,0.2
same,"RNA-seq results, gene NOTCH1",NOTCH1 expression in hepatocytes,0.16
same,"RNA-seq results, gene NOTCH2",NOTCH2 expression in hepatocytes,−0.03
same,"RNA-seq results, gene NPC1",NPC1 expression in hepatocytes,0.3
same,"RNA-seq results, gene NR1H4",NR1H4 expression in hepatocytes,0.22
same,"RNA-seq results, gene NUBPL",NUBPL expression in hepatocytes,−0.06
same,"RNA-seq results, gene NUDT7",NUDT7 expression in hepatocytes,−0.23
same,"RNA-seq results, gene NUDT12",NUDT12 expression in hepatocytes,−0.17
same,"RNA-seq results, gene OAT",OAT expression in hepatocytes,0.1
same,"RNA-seq results, gene OPA3",OPA3 expression in hepatocytes,0.03
same,"RNA-seq results, gene OTC",OTC expression in hepatocytes,−0.18
same,"RNA-seq results, gene PAF1",PAF1 expression in hepatocytes,0.09
same,"RNA-seq results, gene PAH",PAH expression in hepatocytes,0.05
same,"RNA-seq results, gene PANK2",PANK2 expression in hepatocytes,−0.22
same,"RNA-seq results, gene PAOX",PAOX expression in hepatocytes,0.16
same,"RNA-seq results, gene PC",PC expression in hepatocytes,0.17
same,"RNA-seq results, gene PCCA",PCCA expression in hepatocytes,0.13
same,"RNA-seq results, gene PCK2",PCK2 expression in hepatocytes,0.46
same,"RNA-seq results, gene PCSK9",PCSK9 expression in hepatocytes,0.26
same,"RNA-seq results, gene PCYT1A",PCYT1A expression in hepatocytes,0.09
same,"RNA-seq results, gene PDGFRA",PDGFRA expression in hepatocytes,−0.43
same,"RNA-seq results, gene PDP1",PDP1 expression in hepatocytes,−0.04
same,"RNA-seq results, gene PEPD",PEPD expression in hepatocytes,0.32
same,"RNA-seq results, gene PEX11A",PEX11A expression in hepatocytes,0.02
same,"RNA-seq results, gene PEX12",PEX12 expression in hepatocytes,0.11
same,"RNA-seq results, gene PEX14",PEX14 expression in hepatocytes,0.15
